Assays:
[1] = test system: DNA damage response proteins such as γH2AX, p-ATM, and p-ATR; assay: Western blot of DNA damage response proteins in WT DLD-1 cells; type: cell-based, human
Experimental: (§1) SN38 causes DNA damage via inhibition of topoisomerase I. Therefore, DNA damage was measured in both wild-type (WT) and BRCA2 deficient (BRCA2′) DLD-1 cells by induction of γH2AX after treatment with one of the following: no treatment (NT), SN38 alone (SN38), wild-type 3E10 antibody alone (cWT), 3E10-cD31N antibody alone, cWT-SN38 conjugate, or cD31N-SN38 conjugate. After treatment with 100 nM of the antibody or conjugate for 48 hours, the DLD-1 cells were collected for Western blot analysis to measure 7H2AX protein levels. […] These findings were consistent in both WT and BRCA2^−/− DLD-1 cells, but γH2AX protein levels were elevated across all groups in BRCA2^−/− DLD-1 cells.
(§2) DNA damage caused by SN38 or 3E10-SN38 conjugates in WT and BRCA2^−/− DLD-1 cells was assessed by measuring the levels of proteins involved in DNA damage response, p-ATM, p-ATR, pBRCA1, Topoisomerase 1 (TOPO-1), pChk2, pChk1, γH2AX and H2AX. DLD-1 cells were treated with 100 nM of SN38, cWT antibody, cD31N antibody, cWT-SN38 conjugate, or cD31N-SN38 conjugate and collected for Western blot after 24 (FIG. 21A) and 48 hours (FIG. 21B). No treatment (NT) was used as control.

BRCA2^−/− DLD-1 cells = assay: Single 24 hour treatment, long-term viability of BRCA2-/- DLD-1 cells; type: cell-based, human; details: BRCA2-/- DLD-1, 24 hour treatment, days 3, 5 and 7
Experimental: (§3) The effects of treatment with the SN38 or 3E10-SN38 conjugates on the colorectal cancer DLD-1 cell line were investigated. WT and BRCA2^−/− deficient DLD-1 cells were tested. FIG. 13 provides the study protocol and timeline. Each well of a 96-well plate was loaded with 1000 DLD-1 cells. 24 hours post-plating, cells were treated with different concentrations of cWT-SN38 conjugate, cD31N-SN38 conjugate, or SN38 for 24 hours. After treatment, the media was replaced with fresh treatment-free media and was not changed again. Cell viability and half maximal effective concentration (EC50) were tracked every 48 hours post-treatment on days 3, 5, and 7. Half maximal effective concentration (EC50) is a measure of the concentration of a drug, antibody or toxicant which induces a response halfway between the baseline and maximum after a specified exposure time.

DLD-1 cells = assay: treatment duration, single dose of SN38 or 3E10-SN38 conjugates, cancer cell growth (Example 7); type: cell-based; details: effects dose dependent
Source text: FIGS. 14, 15, and 16 show the cell viability of WT and BRCA2^−/− DLD-1 cells after treatment with SN38, cWT-SN38 or cD31N-SN38 at 3, 5, and 7 days post-treatment, respectively.
FIGS. 14A, 15A, and 16A show the viability of WT DLD-1 cells and FIGS. 14B, 15B, and 16B show the viability of BRCA2^−/−- DLD-1 cells. The calculated EC50 values are provided.
FIGS. 17 and 18 show the effects of shorter and longer term treatment on cell viability in WT DLD-1 cells (FIGS. 17A and 17B) and BRCA2^−/−- DLD-1 cells (FIGS. 18A and 18B) at day 7 after treatment with SN38 or cD31N-SN38 conjugate. Shorter term treatment was defined as a 24 hour treatment followed by a change to fresh treatment-free media. Longer term treatment was defined as 7 days of treatment without a change of medium. The calculated EC50 values are provided.

[2] = test system: SKOV3 ovarian cancer cells; assay: Cell viability of SKOV3 cells at 7 days of treatment; type: cell-based
Experimental: The effect of SN38 and 3E10-SN38 conjugates were investigated in SKOV3 ovarian cancer cells. SKOV3 cells were treated with SN38, various 3E10 antibodies and 3E10-SN38 conjugates.
EC50 values are also included.
The EC50 values were calculated and are set forth below in Table 4.

[3] = test system: DNA damage response proteins; assay: Western blot of DNA damage response proteins in PEO-1 cells; type: cell-based; details: 100 nM, 24 and 48 hours
Experimental: (§4) PEO-4 (WT) and PEO-1 (BRCA2^−/−) ovarian cancer cells were treated with 100 nM of SN38, cD31N or cD31N-SN38 and collected at 24 and 48 hours of treatment for Western blot analysis to measure specific protein markers of DNA damage response as previously described.

[4] = test system: DNA damage response proteins; assay: Western blot of DNA damage response proteins in SKOV3 cells; type: cell-based; details: 100 nM, 24, 48 and 72 hours
Experimental: SKOV3 ovarian cancer cells were treated with 100 nM of SN38, cD31N antibody, or cD31N-SN38 as indicated and collected at 24, 48, and 72 hours of treatment for Western blot analysis to measure specific protein markers of DNA damage response as previously described. […] In particular, 7H2AX levels increased over time.

WT DLD-1 cells [5] = assay: Single 24 hour treatment, long-term viability of WT DLD-1 cells; type: cell-based, human; details: WT DLD-1, 24 hour treatment, days 3, 5 and 7
Experimental: as §3

WT DLD-1 cells [6] = assay: Shorter versus longer term treatment, viability of WT DLD-1 cells; type: cell-based, human
Experimental: To determine whether the EC50 values would change based on the duration of the treatment with 3E10-SN38 conjugates, WT or BRCA2^−/− DLD-1 cells were treated with different concentrations of SN38, cD31N antibody, or cD31N-SN38 conjugate and cell viability, and the EC50 values were tracked over time. Shorter term treatment was defined as a 24 hour treatment followed by a change to fresh treatment-free medium. Longer term treatment was defined as treatment without a change of medium for 7 days (e.g., the treatment is not removed).

[7] = test system: DNA damage response proteins; assay: Western blot of DNA damage response proteins in PEO-4 cells; type: cell-based; details: 100 nM, 24 and 48 hours
Experimental: as §4

[8] = test system: DNA damage response proteins such as γH2AX, p-ATM, and p-ATR; assay: Western blot of DNA damage response proteins in BRCA2-/- DLD-1 cells; type: cell-based, human
Experimental: as §1, §2

SMILES: CCc1c2c(nc3ccc(O)cc13)-c1cc3c(c(=O)n1C2)COC(=O)[C@]3(O)CC [SN38, SN-38]
- protein levels of DNA damage response proteins ([1]; WT DLD-1, 100 nM, 24 and 48 hour time points): increased the protein levels of DNA damage response proteins such as γH2AX, p-ATM, and p-ATR
- TOPO-1 levels ([1]; WT DLD-1, 100 nM, 24 and 48 hours): reduced TOPO-1 levels
- γH2AX induction (Western blot) ([1]; WT DLD-1, 100 nM, 24 hours (Example 10)): 7H2AX was induced
- γH2AX detection (Western blot) ([1]; WT DLD-1, 100 nM, 48 hours (Example 10)): 7H2AX was detected
- γH2AX protein levels (Western blot) ([1]; WT DLD-1 cells, 100 nM, 48 hours (Example 5)): induced the highest levels of γH2AX expression
- EC50 values compared between treatments (BRCA2^−/− DLD-1 cells): lower EC50 value than both 3E10-SN38 conjugates
- long-term effects on cancer cell growth (DLD-1 cells): can have long-term effects on cancer cell growth
- cell viability at the highest concentrations [2]: about 0%
- EC50 ([2]; 7 days of treatment): 2.8 nM
- protein expression of DNA damage response proteins [3]: protein expression of DNA damage response proteins was increased
- protein expression of DNA damage response proteins [4]: protein expression of DNA damage response proteins was increased
- EC50 values compared between treatments (WT DLD-1 cells [5]): lower EC50 value than both 3E10-SN38 conjugates
- cell viability (WT DLD-1 cells [6]; WT DLD-1, day 7 of longer term treatment): cell viability was reduced
- cell viability and EC50, longer term versus shorter term treatment (WT DLD-1 cells [6]; WT DLD-1, 7 days without change of medium vs 24 hour treatment): lower cell viability and lower EC50 values than with shorter term treatment
- protein expression of DNA damage response proteins [7]: protein expression of DNA damage response proteins was increased
- protein levels of DNA damage response proteins ([8]; BRCA2-/- DLD-1, 100 nM, 24 and 48 hour time points): increased the protein levels of DNA damage response proteins such as γH2AX, p-ATM, and p-ATR
- TOPO-1 levels ([8]; BRCA2-/- DLD-1, 100 nM, 24 and 48 hours): reduced TOPO-1 levels
- γH2AX induction (Western blot) ([8]; BRCA2-/- DLD-1, 100 nM, 24 hours (Example 10)): 7H2AX was induced
- γH2AX protein levels (Western blot) ([8]; BRCA2-/- DLD-1 cells, 100 nM, 48 hours (Example 5)): induced the highest levels of γH2AX expression

— patent US20260207769A1, “ANTIBODY DRUG CONJUGATES” (YALE UNIVERSITY, priority 2022, published 2026)
